Like-named read-outs stand apart in the source and are kept apart here.
Assays:
Panc02 cells [1] = test: ROS interference in cell viability (MTT with antioxidants); type: cell-based, mouse; details: 24 h; for Protection against sigma-2 ligand induced cell death (Panc02 viability): antioxidant 100 μM one hour prior to sigma-2 ligands 50 μM
Experimental: The interference of ROS in cell viability was indirectly determined by MTT assay reported above at 24 h. On day 1, Panc02 cells were plated at a density of 2 × 10^4 cells/well in opaque 96-well, clear-bottom plates 24 h prior to treatment. On day 2, cells were treated with the drugs (50 μM) in the presence or absence of α-tocopherol (100 μM) or N-Acetyl-L-cysteine (100 μM). After incubation (24 h) with drugs, MTT assay was performed as above.

AsPC-1 cells = test: MTT cell viability, AsPC-1; type: cell-based; details: Homo sapiens, ASPC1, 24 h treatment, viability relative to vehicle
Experimental: (§1) Determination of cell growth was performed using the MTT assay at 24 h. On day 1, pancreatic cancer cell lines were plated at a density of 2 × 10^4 cells/well in black clear-bottom 96-well plates for 24 h prior to treatment in a volume of 100 μL. On day 2, the cells were treated for 24 h with the various drugs concentration (1 μM-100 μM). Untreated cells served as a control. The various drug-solvents (EtOH, DMSO) were added in each control to evaluate a possible solvent cytotoxicity. After the established incubation time with drugs (24 h), MTT (0.5 mg/ml) was added to each well, and after 3–4 h incubation at 37 °C, the supernatant was removed. The formazan crystals were solubilized using 100 μl of DMSO/EtOH (1:1) and the absorbance values at 570 and 630 nm were determined on the multi-mode microplate reader (BioTek instruments, Winooski, VT). Different drug concentrations were assayed in triplicates.
(§2) Statistical analyses and data plotting were performed using GraphPad Prism software version 6.03 (San Diego, CA). Results were expressed as mean ± standard error of the mean of at least 3 biological replicates. EC50 values were calculated by curve fitting normalized viability versus drug concentration. Differences in viability, caspase-3 activity, and tumor volume were analyzed using two-way ANOVA to identify differences and confirmed with paired two tailed t-tests. Mann-Whitney test was used to compare the difference in CBC and biochemistry analyses. Kaplan-Meier survival analyses were used to assess differences between treatment groups and were compared using a log-rank test. A p-value < 0.05 was considered significant for all analyses.

MIAPaCa-2 cells = test: MTT cell viability, MIAPaCa-2; type: cell-based; details: Homo sapiens, MIA PaCa-2, 24 h treatment, viability relative to vehicle
Experimental: as §1, §2

Panc02 tumors = test: In vivo tumor growth and survival, Panc02 tumors in C57BL/6 mice; details: for Effect on tumor volume (in words): daily i.p. treatment, compared to vehicle or gemcitabine
Experimental: In this pre-clinical model, we utilized the Panc02 cell line, which is weakly immunogenic in C57BL/6 mice and aggressive with a subcutaneous inoculum of 1 × 10^5 cells being lethal within 6–8 weeks. In vivo studies with mice were performed to compare the effect of sigma-2 ligands with gemcitabine. Mice treated with vehicle alone (a mixture of 5% DMSO, 5% EtOH, and 10% Cremophor in H2O) served as the control cohort. Female C57BL/6 mice (10 weeks old, National Cancer Institute Laboratories) were injected in the right flank with 200 μL of a single-cell suspension of Panc02 cells in non-supplemented RPMI medium (1 × 10^6 cells per mouse). Treatment began when the mean tumor diameter was ~ 5 mm. […] Tumors were measured three times weekly in two dimensions with a digital caliper, and tumor volumes were calculated by the standard formula of Tumor Volume = Length x Width^2 × 0.5. All mice were euthanized when tumors reached a diameter of 15 mm or had ulcerated.

KP02 cells = test: MTT cell viability, KP02; type: cell-based, mouse; details: Mus musculus, 24 h, 24 h treatment, viability relative to vehicle
Experimental: as §1, §2

[2] = Toxicity evaluation on mice not bearing tumor (CBC, serum chemistry, pathology); type: in vivo, C57BL/6 mice; details: for Off-target effects by necropsy and laboratory evaluations: naïve C57BL/6 mice, continuous daily treatment; for Creatinine: control 0.34 ± 0.02; for RBC: control 7.14 ± 0.1; for WBC: control 10.58 ± 0.2; for HGB: control 10.7 ± 0.7; for MCH: control 15 ± 0.54; for BUN: control 27 ± 0.4; for MCHC: control 29.2 ± 1.21; for HCT: control 36.6 ± 0.08; for MCV: control 51.2 ± 0.32; for Glucose: control 62 ± 12.5; for ALT: control 260 ± 21; for Platelets: control 486 ± 67
Experimental: […] Mice from each treatment cohort were assessed for pathologic evaluation (Digestive Diseases Research Core Center at our institution). Blood was collected for complete blood count (CBC) and biochemical analysis (AST, ALT, BUN, total protein, glucose and Cr). Organs were examined grossly and histologically.

BxPC3 cells = test: MTT cell viability, BxPC3; type: cell-based, human; details: Homo sapiens, BXPC-3, 24 h, 24 h treatment, viability relative to vehicle
Experimental: as §1, §2

sigma-2 receptor = details: ref Berardi, read-out: Affinity (Ki) σ2, cited from earlier work
KCKO cells = test: MTT cell viability, KCKO; type: cell-based; details: Mus musculus, 24 h treatment, viability relative to vehicle
Experimental: as §1, §2

caspase-3 = test: Caspase-Glo caspase-3 activity in Panc02 cells; type: cell-based, mouse; details: for Caspase-3 activation (in words): compared to DMSO control
Experimental: Caspase-3 activity was measured in Panc02 cell lines with a Caspase-Glo® Assay Systems (Promega) according to protocol in which the reagent contain luminogenic caspase substrates that cleaved by activated caspase. […] The contents were then mixed using plate shaker for 30 s, and incubated at room temperature for 90 min. Luminescence signal was measured using multi-mode microplate reader (BioTek). Assay was performed in triplicates, and caspase activity was plotted compared cells treated with DMSO as a control.

Panc-1 cells = test: MTT cell viability, Panc-1; type: cell-based; details: Homo sapiens, 24 h treatment, viability relative to vehicle
Experimental: as §1, §2

Panc02 cells [3] = test: MTT cell viability, Panc02; type: cell-based; details: Mus musculus, 24 h treatment, viability relative to vehicle
Experimental: as §1, §2

Panc02 cells [4] = test: MitoSOX Red mitochondrial superoxide by flow cytometry, Panc02; type: cell-based, mouse; details: all pancreatic cancer cell lines tested (Panc02, AsPC-1, KP02, BxPC3); sigma-2 ligands 50 μM, 2 h, with α-tocopherol
Experimental: MitoSOX™ Red reagent is a novel fluorogenic dye specifically targeted to mitochondria in live cells. Oxidation of MitoSOX™ Red reagent by superoxide produces red fluorescence. Mitochondrial superoxide is generated as a byproduct of oxidative phosphorylation. […] MitoSOX™ Red reagent is readily oxidized by superoxide but not by other ROS- or reactive nitrogen species (RNS)–generating systems. Panc02, AsPC-1, KP-2 or BxPC3 cells were seeded into 12-well plates 24 h before treatment with sigma-2 ligands (50 μM) for 2 h at 37°C in presence or absence of α-tocopherol (100 μM) followed by staining with MitoSOX™ Red (5 μM). Two hours after red dye addition, the cells were washed twice with PBS and harvested with trypsin/EDTA buffer. The cells were washed twice with PBS before analysis with FACSCalibur (BD Bioscience, San Jose, CA). The oxidation product of MitoSOX™ Red by mitochondrial superoxide fluoresces with an emission maximus of 580 nm and was detected in the FL3 channel. Experiment was performed in triplicates.

[5] = not tumor-bearing C57BL/6 mice, n = 3, daily i.p., 5 days

EC50 (AsPC-1 cells) [µM]	EC50 (MIAPaCa-2 cells) [µM]	EC50 (BxPC3 cells) [µM]	EC50 (Panc-1 cells) [µM]	EC50 (Panc02 cells [3]) [µM]	Compound	Effect on tumor volume (in words) (Panc02 tumors; Panc02 s.c. in female C57BL/6)	EC50 (KP02 cells) [µM]	Off-target effects by necropsy and laboratory evaluations [2]	Creatinine [2, 5] [mg/dL]	RBC [2, 5]	WBC [2, 5]	HGB [2, 5] [g/dL]	MCH [2, 5] [pg]	BUN [2, 5] [mg/dL]	MCHC [2, 5] [%]	HCT [2, 5] [%]	MCV [2, 5] [fL]	ALT [2, 5] [μ/L]	Platelets [2, 5]	EC50 (KCKO cells) [µM]	also measured
–	–	–	–	–	CC(=O)N[C@@H](CS)C(=O)O [N-acetyl-L-cysteine (NAC), N-Acetyl-L-cysteine, reference compound]	–	–	–	–	–	–	–	–	–	–	–	–	–	–	–	Protection against sigma-2 ligand induced cell death (Panc02 viability) (Panc02 cells [1]): did not
> 100	49	100	> 100	83	COc1cccc2c(CCCN3CCN(C4CCCCC4)CC3)cccc12 [PB183, 1-Cyclohexyl-4-[3-(5-methoxynaphthalen-1-yl)propyl]-piperazine]	not effective	97	no major off-target effects	0.37 ± 0.04	9.24 ± 0.9 10^6/μL	6.42 ± 1.22 10^3/μL	14.85 ± 1.35	16.1 ± 0.1	21 ± 2	30.4 ± 0.7	48.8 ± 3.3	52.9 ± 1.6	203 ± 34	727.5 ± 65.5 10^3/μL	51	Cell death on co-treatment with NAC (Panc02 cells [1]; Panc02 cells, ligand 50 μM with NAC 100 μM): even higher levels of cell death; AST ([2]; not tumor-bearing C57BL/6 mice, n = 3, daily i.p., 5 days, control 5.6 ± 0.05): 5.4 ± 0.5 μ/L; Ki (sigma-2 receptor; et al. 2004 [25]): 0.00924 µM; Caspase-3 activation (in words) (caspase-3; 200 μM, 5 h): little effect
> 100	50	100	> 100	37	COc1cccc2c1CCCC2CCCN1CCC(C2CCCCC2)CC1 (stereo not shown) [PB221, 4-Cyclohexyl-1-[3-(5-methoxy-1,2,3,4-tetrahydronaphthalen-1-yl-propyl)]piperidine]	did not confer a significantly different tumor volume than vehicle alone	> 100	no major off-target effects	0.35 ± 0.03	9.59 ± 0.71 10^6/μL	8.12 ± 0.14 10^3/μL	14.7 ± 0.8	15.35 ± 0.35	30.5 ± 3.5	29.25 ± 0.55	50.35 ± 3.75	52.5 ± 0.02	219 ± 5	563 ± 17 10^3/μL	19	Glucose [2, 5]: 64.5 ± 7.5 mg/dL; Ki (sigma-2 receptor; et al. 2009 [26]): 0.0188 µM; Increase of caspase-3 activity compared to cells treated with DMSO vehicle (caspase-3; 200 μM, 5 h): 15.7 fold
–	–	–	–	–	Cc1c(C)c2c(c(C)c1O)CC[C@@](C)(CCC[C@H](C)CCC[C@H](C)CCCC(C)C)O2 [α-tocopherol, reference compound]	–	–	–	–	–	–	–	–	–	–	–	–	–	–	–	Protection against sigma-2 ligand induced cell death (Panc02 viability) (Panc02 cells [1]): protected against sigma-2 receptor ligands induced cell death; Effect on caspase activation caused by PB221 or PB282 (caspase-3; Z-DEVD-FMK 1 μM or α-tocopherol given before PB221, PB282 (200 μM, 5 h)): abrogates caspase-3 dependent cleavage; Effect on mitochondrial superoxide production following sigma-2 ligands treatment (Panc02 cells [4]): strongly decreased

Compound	EC50 (AsPC-1 cells) [µM]	EC50 (MIAPaCa-2 cells) [µM]	EC50 (BxPC3 cells) [µM]	EC50 (Panc-1 cells) [µM]	EC50 (Panc02 cells [3]) [µM]	Effect on tumor volume (in words) (Panc02 tumors; Panc02 s.c. in female C57BL/6)	EC50 (KP02 cells) [µM]	Off-target effects by necropsy and laboratory evaluations [2]	Creatinine [2, 5] [mg/dL]	RBC [2, 5]	WBC [2, 5]	HGB [2, 5] [g/dL]	MCH [2, 5] [pg]	BUN [2, 5] [mg/dL]	MCHC [2, 5] [%]	HCT [2, 5] [%]	MCV [2, 5] [fL]	ALT [2, 5] [μ/L]	Platelets [2, 5]	EC50 (KCKO cells) [µM]	also measured
COc1cccc2c1CCCC2CCCN1CCN(C2CCCCC2)CC1 (stereo not shown) [PB28, 1-Cyclohexyl-4-[3-(5-methoxy-1,2,3,4-tetrahydronaphthalen-1-yl)propyl] piperazine]	> 100	51	> 100	> 100	43	decreased tumor volume similar to gemcitabine alone	> 100	no major off-target effects	0.37 ± 0.04	10.24 ± 0.3 10^6/μL	11.11 ± 1.97 10^3/μL	15.65 ± 0.55	15.3 ± 0.1	32 ± 1	29.3 ± 0.2	53.4 ± 1.5	52.15 ± 0.05	249 ± 9	643.5 ± 95.5 10^3/μL	87	Mean tumor volume following conclusion of treatment (Panc02 tumors; Panc02 s.c. in female C57BL/6, i.p. daily for two weeks (gemcitabine once weekly), vehicle mean = 924 mm^3): 369 mm^3; Median survival (Panc02 tumors; Panc02 tumor-bearing C57BL/6 mice, treatment discontinued on day 15, DMSO (vehicle) 23 days): 27 days; Glucose [2, 5]: 92.5 ± 22.5 mg/dL; Ki (sigma-2 receptor; et al. 2009 [26]): 0.00068 µM; Caspase-3 activation (in words) (caspase-3; 200 μM, 5 h): did not activate at all
